PMC11949107, “Polyunsaturated fatty acids and their endocannabinoid-related metabolites activity at human TRPV1 and TRPA1 ion channels expressed in HEK-293 cells” (PeerJ, 2025)
Values joined by “and” are separate entries in the source; they are usually repeats but may differ in a detail not shown here. Identical values can stand only once. Each block holds one compound with its values, some of them ahead of it.

How the values were obtained:
human TRPV1 [1] = target: T1, human TRPV1 (Homo sapiens, UniProt Q8NER1); test: Calcium 5 dye [Ca]i assay in HEK-293 Flp-In T-REx cells expressing TRPV1 (agonist response); assay type: cell-based; details: for Change in Ca5 fluorescence, individual experiments (CRC raw data): TRPV1 cells
T1 construct: Life Technologies (cells); host or cells: Flp-In T-REx HEK-293
T1 sequence (Q8NER1 whole entry): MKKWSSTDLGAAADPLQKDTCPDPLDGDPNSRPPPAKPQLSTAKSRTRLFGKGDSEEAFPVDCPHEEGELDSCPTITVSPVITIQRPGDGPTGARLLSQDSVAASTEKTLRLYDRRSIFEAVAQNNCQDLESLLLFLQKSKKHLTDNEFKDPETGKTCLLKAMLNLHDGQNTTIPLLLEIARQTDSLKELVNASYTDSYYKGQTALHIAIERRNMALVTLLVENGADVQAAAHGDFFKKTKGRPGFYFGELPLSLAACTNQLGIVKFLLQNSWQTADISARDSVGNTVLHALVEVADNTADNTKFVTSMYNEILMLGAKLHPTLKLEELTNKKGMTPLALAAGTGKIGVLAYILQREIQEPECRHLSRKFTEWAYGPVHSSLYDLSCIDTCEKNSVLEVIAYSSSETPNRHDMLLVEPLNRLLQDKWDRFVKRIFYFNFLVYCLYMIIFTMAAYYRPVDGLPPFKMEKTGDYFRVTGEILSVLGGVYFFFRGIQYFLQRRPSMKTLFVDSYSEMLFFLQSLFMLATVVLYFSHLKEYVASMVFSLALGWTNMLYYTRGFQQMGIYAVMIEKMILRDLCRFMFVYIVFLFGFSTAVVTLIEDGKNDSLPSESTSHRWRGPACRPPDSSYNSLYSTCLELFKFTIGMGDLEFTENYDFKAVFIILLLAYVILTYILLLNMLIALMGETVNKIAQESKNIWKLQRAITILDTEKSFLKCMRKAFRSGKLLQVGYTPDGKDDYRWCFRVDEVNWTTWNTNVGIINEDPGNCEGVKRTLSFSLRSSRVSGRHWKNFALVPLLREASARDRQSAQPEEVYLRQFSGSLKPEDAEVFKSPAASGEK
Summary of the method: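 Tetracycline-induced (1 µg ml^−1, 4 h) HEK-293 T-REx cells loaded with Calcium 5 dye plus 1.25 mM probenecid for 1 h; agonist added after 1 min baseline (0.1% DMSO final), fluorescence (485/525 nm) read every 2 s for 5 min at 37 °C. Response as % change from baseline, solvent-subtracted; EC50/Emax from three-parameter logistic fit, given as pEC50.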

HEK-293 EV cells = test: Calcium 5 dye [Ca]i assay in HEK-293 empty vector (EV) cells; assay type: cell-based, human; details: 10 µM; HEK-293 EV cells; percentage of predrug baseline
Summary of the method: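 Tetracycline at 1 µg ml^−1 was added 4 h before testing; cells were loaded with Calcium 5 dye for 1 h and read at 37 °C, with drug added after 1 min baseline (final 0.1% DMSO). The response was the % change from the 60 s baseline after solvent subtraction, and EC50/Emax came from a three-parameter logistic fit, reported as pEC50.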

human TRPV1 [2] = target: T1, human TRPV1; test: PMA (phorbol ester) potentiation of TRPV1 responses in HEK-293 TRPV1 cells; assay type: cell-based; details: for [Ca]i response (change in fluorescence), individual replicates: sheet Figure 5(C)
Method: (§1) Intracellular calcium [Ca]i levels were assessed using the calcium 5 kit from Molecular Devices (# R8186, Sunnyvale, CA, USA) on a FlexStation 3 Microplate Reader (Molecular Devices, Sunnyvale, CA, USA). […] Probenecid (cat # 50027; Biotium) which helps to prevent expulsion of calcium indicator from the cells was added to a final concentration of 1.25 mM. 90 µL of the dye were loaded into each well of the plate and incubated for 1 h before reading in the FlexStation 3 at 37 °C. Fluorescence was recorded every 2 s (λ excitation = 485 nm, λ emission = 525 nm) for 5 min. After 1 min of baseline recording, 20 µL of the drug, dissolved in HBSS with 1% dimethyl sulfoxide (DMSO) (cat # D2650; Sigma-Aldrich, Melbourne, Australia) was added (final DMSO concentration was 0.1% in well).
We initially determined the effect of PMA, another phorbol ester that is a protein kinase C activator ([Jiang & Fleet, 2012]) on HEK-293 TRPV1 expressing cells.
(A) Response of HEK-293 TRPV1 expressing cells for PMA at various concentration. […] Drugs were added for the duration of the bar; (D) The effects of PUFAs after potentiation of TRPV1 by PMA. […] Changes in [Ca]i are expressed as percentage of the pre-drug baseline, with the response to PMA alone at 5 min subtracted. The black circles represent the response of PUFAs without PMA pretreatment while the pink circles represent the response of PUFAs after PMA potentiation.

human TRPV1 [3] = target: T1, human TRPV1; test: Pre-incubation with PUFAs or capsazepine, then capsaicin (10 nM) response in HEK-293 TRPV1 cells; assay type: cell-based
Method: as §1, with “well). […]” for “well).”

Structure (SMILES): COc1cc(CNC(=O)CCCC/C=C/C(C)C)ccc1O [Capsaicin]
- Elevation of [Ca]i in HEK-293 TRPV1 cells compared with HEK-293 EV cells (human TRPV1 [1]; 10 µM): significantly greater
- Change of Ca5 fluorescence, Mean ± SEM, TRPV1 (10 µM) (human TRPV1 [1]; 10 µM, HEK-293 TRPV1 cells, percentage of predrug baseline): 350 ± 33 %
- Emax at 30 µM (human TRPV1 [1]; HEK293, read-out: Emax ± SEM % TRPV1 (30 µM)): 340 ± 19%
- TRPV1 response, Mean± SEM (N) (human TRPV1 [1]; highest concentration of capsaicin (10 µM)): 337 ± 56 (21)
- Change in Ca5 fluorescence, individual experiments (CRC raw data) (human TRPV1 [1]; log concentration -5 (M)): 470.33 and 172.951 and 473.364 and 509.446 and 171.926 and 427.551 and 233.547 and 218.906 and 339.94 and 178.11 and 253.39 and 197.967 and 463.085 and 202.235 and 472.577 and 462.537 and 153.101 and 535.708 and 529.643 and 524.333
- Change in Ca5 fluorescence, individual experiments (CRC raw data) (human TRPV1 [1]; log concentration -6 (M)): 464.868 and 165.225 and 461.65 and 520.53 and 312.706 and 3.214 and 3.201 and 3.988 and 340.169 and 187.118 and 486.026 and 246.165 and 485.213
- Change in Ca5 fluorescence, individual experiments (CRC raw data) (human TRPV1 [1]; log concentration -7 (M)): 449.588 and 119.691 and 406.342 and 2.432 and 332.379 and 480.521 and 322.808 and 86.6522 and 310.081 and 147.599 and 431.922 and 467.245
- Change in Ca5 fluorescence, individual experiments (CRC raw data) (human TRPV1 [1]; log concentration -7.52288 (M)): 356.845 and 111.895 and 323.852 and 3.161 and 274.896 and 259.762 and 73.7365 and 34.2854 and 273.106 and 132.986 and 393.207 and 420.023 and 372.386
- Change in Ca5 fluorescence, individual experiments (CRC raw data) (human TRPV1 [1]; log concentration -8 (M)): 5.385 and 96.7773 and 164.958 and 3.572 and 5.951 and 47.2327 and 7.175 and 1.822 and 309.776 and 125.652 and 333.972 and 270.42 and 149.94
- Change in Ca5 fluorescence, individual experiments (CRC raw data) (human TRPV1 [1]; log concentration -8.52288 (M)): 11.2452 and 61.0751 and 5.8468 and 39.7141 and 6.931 and 3.397 and 5.378 and 0.9947 and 335.917 and 103.111 and 65.1245 and 4.361 and 1.4546
- Change in Ca5 fluorescence, individual experiments (CRC raw data) (human TRPV1 [1]; log concentration -9 (M)): 6.236 and 19.5627 and 8.465 and 57.6325 and 2.89 and 1.796 and 10.3317 and 2.025 and 308.34 and 50.3171 and 51.1654 and 4.4283 and 2.369 and 122.651 and 6.769 and 5.267
- Change in Ca5 fluorescence (human TRPV1 [1]; maximal effective concentration, HEK-293 TRPV1 cells, dye saturation control): 435 ± 15%
- Change of Ca5 fluorescence, Mean ± SEM, EV (10 µM) (HEK-293 EV cells): 12 ± 2%
- [Ca]i response (change in fluorescence), individual replicates (human TRPV1 [2]; Capsaicin alone, concentration -5 (log)): 595.541 and 626.277 and 602.254 and 594.454 and 590.074 and 541.046 and 516.667
- [Ca]i response (change in fluorescence), individual replicates (human TRPV1 [2]; Capsaicin alone, concentration -6 (log)): 552.521 and 565.654 and 354.62 and 545.98 and 564.249 and 584.634 and 580.153
- [Ca]i response (change in fluorescence), individual replicates (human TRPV1 [2]; Capsaicin alone, concentration -7.52288 (log)): 532.091 and 453.931 and 457.847 and 272.568
- [Ca]i response (change in fluorescence), individual replicates (human TRPV1 [2]; Capsaicin alone, concentration -8 (log)): 105.919 and 177.189 and 79.3195 and 30.3097 and 60.6584 and 319.686 and 144.106
- [Ca]i response (change in fluorescence), individual replicates (human TRPV1 [2]; Capsaicin alone, concentration -8.52288 (log)): 2.139 and 1.734 and 6.239 and 49.459 and 10.1781 and -5.201 and 2.9246 and 2.502 and 16.6604 and 25.7998 and 147.975 and 180.247
- [Ca]i response (change in fluorescence), individual replicates (human TRPV1 [2]; Capsaicin alone, concentration -9 (log)): 2.491 and -0.4612 and 4.215 and 6.618 and 6.288 and 4.839 and 3.5734 and 0.9298 and 2.514 and -2.854 and 3.184 and 5.152
- [Ca]i response (change in fluorescence), individual replicates (human TRPV1 [2]; Capsaicin alone, concentration -10 (log)): -1.109 and 5.021 and -0.4125 and -2.624 and 0.2107
- [Ca]i response (change in fluorescence), individual replicates (human TRPV1 [2]; Capsaicin post-PMA, concentration -5 (log)): 496.984 and 417.588
- [Ca]i response (change in fluorescence), individual replicates (human TRPV1 [2]; Capsaicin post-PMA, concentration -6 (log)): 544.156 and 380.208 and 494.359 and 527.721 and 402.607 and 284.086
- [Ca]i response (change in fluorescence), individual replicates (human TRPV1 [2]; Capsaicin post-PMA, concentration -7.52288 (log)): 396.653 and 394.172 and 495.495 and 292.964
- [Ca]i response (change in fluorescence), individual replicates (human TRPV1 [2]; Capsaicin post-PMA, concentration -8 (log)): 292.695 and 167.258 and 234.279 and 203.284 and 320.763 and 311.597 and 228.909
- [Ca]i response (change in fluorescence), individual replicates (human TRPV1 [2]; Capsaicin post-PMA, concentration -8.52288 (log)): 137.626 and 123.803 and 108.674 and 62.3148 and 135.616 and 311.329 and 67.1431 and 138.197 and 73.5753 and 51.0772
- [Ca]i response (change in fluorescence), individual replicates (human TRPV1 [2]; Capsaicin post-PMA, concentration -9 (log)): 41.3533 and 39.7921 and 40.9396 and 31.7003 and 53.9609 and 52.809 and 35.9713 and 49.984 and 39.816 and 29.7359 and 17.3567
- [Ca]i response (change in fluorescence), individual replicates (human TRPV1 [2]; Capsaicin post-PMA, concentration -10 (log)): 44.473 and 19.9944 and 42.7227 and 36.7683 and 31.3318 and 10.3982
- HBSS post Capsaicin, individual experiments (human TRPV1 [2]; HBSS after capsaicin 10 nM): 14.4552 and 24.0374 and 16.1823
- TRPV1 response after exposure to PMA (human TRPV1 [2]; PMA 100 nM, 5 min pretreatment): amplified
- Drugs post-PMA, individual experiments (human TRPV1 [2]; capsaicin 10 nM after PMA 100 nM for 5 min, response to PMA alone subtracted): 292.695 and 167.258 and 234.279 and 203.284 and 320.763
- Capsaicin response without PMA, individual experiments (human TRPV1 [2]; capsaicin 10 nM alone): 226.255 and 133.384 and 132.765
- Drugs alone, individual experiments (human TRPV1 [2]; capsaicin 10 nM without PMA pretreatment): 79.3195 and 30.3097 and 60.6584

- Effect of pre-treatment on the capsaicin response (human TRPV1 [3]; 10 µM, 5 min exposure, then capsaicin 10 nM): prevented
Structure (SMILES): Oc1cc2c(cc1O)CN(C(=S)NCCc1ccc(Cl)cc1)CCC2 [capsazepine, reference compound]
- Post-capsaicin: response to subsequent capsaicin addition, individual experiments (human TRPV1 [3]; capsaicin 10 nM after 5 min drug 10 µM, TRPV1 cells, listed as CAPZ): 10.3375 and -4.09 and 24.8571 and 12.9593 and -2.666 and 6.069
- Pre-capsaicin: response to first drug, individual experiments (human TRPV1 [3]; drug 10 µM for 5 min, TRPV1 cells, listed as CAPZ): 25.3514 and 3.867 and 12.8382 and 10.4656 and 4.742 and 37.2822
